{"source": "patent US20060009425A1", "about": "“Oral formulations of paricalcitol” (priority 2004, published 2006)", "key": {"[1]": {"assay": "Phase 3 TIW study, safety (Example 6)", "method": "(§4) Additionally, safety was assessed by the incidence of adverse events, the change from baseline in chemistry, hematology and urinalysis laboratory variables, the change from baseline in subject vital signs, and progressive changes in renal function observed via changes in eGFR.\nAll randomized subjects who received at least 1 dose of study drug were used in safety analyses. […] This comparison was performed using a Fisher's exact test. Secondary safety analyses were performed comparing changes/percent changes from baseline between the paricalcitol and placebo treatment groups using a one-way ANOVA with treatment group as the factor for the following variables: hematology, complete chemistry, and urinalysis variables; 24-hour urine collections, eGFR, urinary calcium/creatinine ratio, cardiovascular markers, and vital signs. Secondary safety analyses also consisted of an analysis of “treatment-emergent” adverse events (i.e., adverse events with an onset date on or after the date the first dose of study drug was taken). Adverse events were summarized by body system and COSTART term according to the COSTART V adverse event-coding dictionary. Comparisons of the percentage of subjects experiencing an adverse event between the paricalcitol and placebo treatment groups were performed using a Fisher's exact test."}, "[2]": {"system": "serum parathyroid hormone (PTH) levels", "assay": "Phase 3 placebo-controlled TIW study, iPTH reduction (Example 6)", "assay_type": "in vivo, human", "excerpt": "Methodology: This was a Phase 3, prospective, randomized, placebo-controlled, double-blind, 24-week Treatment Phase, multi-center study in CKD (Stages 3 and 4) subjects with elevated PTH levels (≧150 pg/mL). Subjects were randomized in an equal ratio (1:1) to 1 of 2 treatment groups: Paricalcitol Capsule (Group 1) and placebo (Group 2). Potential subjects underwent procedures to determine their baseline intact PTH (iPTH), calcium, and phosphorus levels for eligibility to receive treatment.\nThe study was performed in 4 parts: a Screening Visit, a Pre-Treatment Phase, a Treatment Phase, and a Follow-Up Phase. At the Screening Visit, subjects reviewed and signed the informed consent form prior to the conduct of any study-specific screening procedures. A spot urine sample was used to calculate calcium/creatinine ratio. A blood sample was drawn for iPTH, blood urea nitrogen (BUN), albumin and serum creatinine levels. […] The serum creatinine, BUN, and albumin values were used to calculate the subject's estimated glomerular filtration rate (eGFR) using a formula derived from the “Modification of Diet in Renal Disease” (MDRD) study. Subjects with a calculated eGFR of 15 to 60 mL/min were eligible to undergo Pre-Treatment Phase procedures. The Pre-Treatment Phase was 1 to 4 weeks. During this phase, subjects had 2 scheduled office visits. The office visits could have occurred at any time over a 4-week period but must have been at least 1 day apart. During these visits, subjects were to meet laboratory criteria regarding serum iPTH, calcium, and phosphorus levels. If the subject was unable to meet these criteria, he or she may have been re-screened once after 4 weeks. […] Subjects who satisfied inclusion and exclusion criteria after a minimum of 1 week in the Pre-Treatment Phase were eligible to enter the Treatment Phase. During the Treatment Phase, subjects were to self-administer study drug 3 times weekly, on Monday, Wednesday and Friday, for a total of 24 weeks. The initial dose was 2 or 4 mcg (depending on baseline iPTH levels). Procedures to be performed during the Treatment Phase included vital signs, chemistry and hematology, urinary pyridinoline, urinary deoxypyridinoline, serum bone-specific alkaline phosphatase, serum osteocalcin, urinalysis, spot urine for calcium/creatinine ratio, and recording of adverse events and concurrent medications. Serum iPTH, calcium, phosphorus, and albumin were measured every 2 weeks. Dose adjustments were to be made according to these chemistry results for iPTH, calcium, and phosphorus. Doses may have been increased in 2 mcg increments every 4 weeks. Dose reductions were to occur according to a protocol-specified algorithm. However, dosing could have been adjusted any time if, in the judgment of the Investigator, a risk to subject safety existed.\n(§1) Efficacy: The primary efficacy endpoint was the achievement of 2 consecutive >30% decreases from baseline iPTH levels.\n(§2) The secondary efficacy analyses include change and percent change from baseline analyses in iPTH and change from baseline analyses in biochemical bone activity markers.\n(§3) The Intent-To-Treat population (Full Analysis Set) was defined as all randomized subjects with a baseline iPTH and at least 2 on-treatment iPTH measurements. This population was used in the primary efficacy analysis."}, "[3]": {"system": "serum parathyroid hormone (PTH) levels", "assay": "Phase 3 placebo-controlled once daily study, iPTH reduction (Example 8)", "assay_type": "in vivo, human", "excerpt": "Methodology: This was a Phase 3, prospective, randomized, placebo-controlled, double-blind, 24-week Treatment Phase, multi-center study in CKD (Stages 3 and 4) subjects with elevated PTH levels (≧150 pg/mL). Subjects were randomized in an equal ratio (1:1) to 1 of 2 treatment groups: Paricalcitol capsule (Group 1) and placebo (Group 2). Potential subjects underwent procedures to determine their baseline intact PTH (iPTH), calcium, and phosphorus levels for eligibility to receive treatment.\nDuring the Treatment Phase, subjects were to self-administer study drug once daily for a total of 24 weeks. The initial dose was 1 or 2 mcg (depending on baseline iPTH levels). Procedures to be performed during the Treatment Phase included vital signs, chemistry and hematology, urinary pyridinoline, urinary deoxypyridinoline, serum bone-specific alkaline phosphatase, serum osteocalcin, urinalysis, spot urine for calcium/creatinine ratio, and recording of adverse events and concurrent medications. Serum iPTH, calcium, phosphorus, and albumin were measured every 2 weeks. Dose adjustments were to be made according to these chemistry results for iPTH, calcium, and phosphorus. Doses may have been increased in 1 mcg increments every 4 weeks. Dose reductions were to occur according to a protocol-specified algorithm. However, dosing could have been adjusted any time if, in the judgment of the Investigator, a risk to subject safety existed.\nas §1, §2, §3"}, "[4]": {"assay": "Phase 3 once daily study, safety (Example 8)", "method": "as §4\nAll randomized subjects who received at least 1 dose of study drug were used in safety analyses.\nSecondary safety analyses also consisted of an analysis of “treatment-emergent” adverse events (i.e., adverse events with an onset date on or after the date the first dose of study drug was taken). Adverse events were summarized by body system and COSTART term according to the COSTART V adverse event-coding dictionary. Comparisons of the percentage of subjects experiencing an adverse event between the Paricalcitol and placebo treatment groups were performed using a Fisher's exact test."}}, "data": [{"smiles": "C[C@H](/C=C/[C@H](C)C(C)(C)O)[C@H]1CC[C@H]2/C(=C/C=C3C[C@@H](O)C[C@H](O)C3)CCC[C@]12C", "note": "[Paricalcitol, 19-nor-1α,3β,25-trihydroxy-9,10-secoergosta-5(Z); 7(E),22(E)-triene]", "values": [{"measurement": "safety and tolerability", "setting": "[1]; CKD (Stages 3 and 4) subjects", "value": "safe and well tolerated"}, {"measurement": "adverse events considered not related to study drug administration", "setting": "[1]; TIW, 24 weeks", "value": 85, "unit": "%"}, {"measurement": "adverse events mild or moderate in severity", "setting": "[1]; TIW, 24 weeks", "value": 88, "unit": "%"}, {"measurement": "subjects with treatment-emergent adverse events", "setting": "[1]; TIW, 24 weeks", "value": 79, "unit": "%"}, {"measurement": "subjects reporting serious adverse events", "setting": "[1]; Treatment and Follow-Up Phases", "value": 9, "unit": "subjects"}, {"measurement": "deaths", "setting": "[1]; cardiopulmonary arrest, considered not related to study drug", "value": 1, "unit": "subject"}, {"measurement": "adverse event incidence: constipation", "setting": "[1]; in vivo", "value": 8, "unit": "%"}, {"measurement": "adverse event incidence: depression", "setting": "[1]; in vivo", "value": 8, "unit": "%"}, {"measurement": "adverse event incidence: headache", "setting": "[1]; in vivo", "value": 8, "unit": "%"}, {"measurement": "adverse event incidence: hypertension", "setting": "[1]; in vivo", "value": 8, "unit": "%"}, {"measurement": "adverse event incidence: infection", "setting": "[1]; in vivo", "value": 8, "unit": "%"}, {"measurement": "adverse event incidence: pain", "setting": "[1]; in vivo", "value": 10, "unit": "%"}, {"measurement": "adverse event incidence: pharyngitis", "setting": "[1]; in vivo", "value": 10, "unit": "%"}, {"measurement": "adverse event incidence: rhinitis", "setting": "[1]; in vivo", "value": 8, "unit": "%"}, {"measurement": "adverse event incidence: vertigo", "setting": "[1]; in vivo", "value": 8, "unit": "%"}, {"measurement": "subjects terminated prematurely due to adverse events", "setting": "[1]; in vivo", "value": 1, "unit": "subjects"}, {"measurement": "subjects who developed clinically meaningful hypercalcemia (at least 2 consecutive calcium values >10.5 mg/dL)", "setting": "[1]; in vivo", "value": "1/38"}, {"measurement": "subjects with 4 consecutive ≧30% decreases from baseline in iPTH", "setting": "[2]; 26/36, exploratory analysis", "value": 72, "unit": "%"}, {"measurement": "subjects with 2 consecutive >30% decreases from baseline in iPTH", "setting": "[2]; 33/36, TIW, 24 weeks, CKD Stages 3 and 4", "value": 92, "unit": "%"}, {"measurement": "30% mean reduction in iPTH occurred by", "setting": "[2]; TIW", "value": "≤ 9", "unit": "Week"}, {"measurement": "mean change from baseline in iPTH at the Final Visit", "setting": "[2]; TIW, 24 weeks", "value": -58.1, "unit": "pg/mL"}, {"measurement": "mean change from baseline in iPTH at the Last On-Treatment Visit", "setting": "[2]; TIW, 24 weeks", "value": -95.7, "unit": "pg/mL"}, {"measurement": "percent decrease in iPTH at the Final Visit", "setting": "[2]; TIW, 24 weeks", "value": 19.2, "unit": "%"}, {"measurement": "percent decrease in iPTH at the Last On-Treatment Visit", "setting": "[2]; TIW, 24 weeks", "value": 33.0, "unit": "%"}, {"measurement": "maximum decrease from baseline in iPTH", "setting": "[2]; observed at Week 19", "value": "−46.0", "unit": "%"}, {"measurement": "subjects with 4 consecutive ≧30% decreases from baseline in iPTH", "setting": "[3]; 23/33, exploratory analysis", "value": 70, "unit": "%"}, {"measurement": "subjects with 2 consecutive ≧30% decreases from baseline in iPTH", "setting": "[3]; 30/33, once daily, 24 weeks, CKD Stages 3 and 4", "value": 91, "unit": "%"}, {"measurement": "maximum decrease from baseline in iPTH", "setting": "[3]; observed at Week 23", "value": "−52.4", "unit": "%"}, {"measurement": "30% mean reduction in iPTH occurred by", "setting": "[3]; once daily", "value": "≤ 7", "unit": "Week"}, {"measurement": "mean change from baseline in iPTH at the Final Visit", "setting": "[3]; once daily, 24 weeks", "value": -46.9, "unit": "pg/mL"}, {"measurement": "mean change from baseline in iPTH at the Last On-Treatment Visit", "setting": "[3]; once daily, 24 weeks", "value": -130.8, "unit": "pg/mL"}, {"measurement": "percent decrease in iPTH at the Final Visit", "setting": "[3]; once daily, 24 weeks", "value": 15.2, "unit": "%"}, {"measurement": "percent decrease in iPTH at the Last On-Treatment Visit", "setting": "[3]; once daily, 24 weeks", "value": 50.0, "unit": "%"}, {"measurement": "safety and tolerability", "setting": "[4]; CKD (Stages 3 and 4) subjects", "value": "safe and well tolerated"}, {"measurement": "mean calcium values, range over scheduled visits", "setting": "[4]; Treatment Phase", "value": "9.24 to 9.54", "unit": "mg/dL"}, {"measurement": "subjects reporting serious adverse events", "setting": "[4]; Treatment and Follow-Up Phases", "value": 7, "unit": "subjects"}, {"measurement": "deaths", "setting": "[4]; hepatic encephalopathy, considered not related to study drug", "value": 1, "unit": "subject"}, {"measurement": "adverse event incidence: abdominal pain", "setting": "[4]; in vivo", "value": 9, "unit": "%"}, {"measurement": "adverse event incidence: accidental injury", "setting": "[4]; in vivo", "value": 17, "unit": "%"}, {"measurement": "adverse event incidence: allergic reaction", "setting": "[4]; in vivo", "value": 9, "unit": "%"}, {"measurement": "adverse event incidence: cough increased", "setting": "[4]; in vivo", "value": 9, "unit": "%"}, {"measurement": "adverse event incidence: diarrhea", "setting": "[4]; in vivo", "value": 11, "unit": "%"}, {"measurement": "adverse event incidence: edema", "setting": "[4]; in vivo", "value": 11, "unit": "%"}, {"measurement": "adverse event incidence: nausea", "setting": "[4]; in vivo", "value": 9, "unit": "%"}, {"measurement": "adverse event incidence: pharyngitis", "setting": "[4]; in vivo", "value": 14, "unit": "%"}, {"measurement": "adverse event incidence: rash", "setting": "[4]; in vivo", "value": 11, "unit": "%"}, {"measurement": "adverse event incidence: vomiting", "setting": "[4]; in vivo", "value": 11, "unit": "%"}, {"measurement": "phosphorus, mean change from baseline to Final Visit", "setting": "[4]; in vivo", "value": -0.13, "unit": "mg/dL"}, {"measurement": "serum calcium, mean change from baseline to Last On-Treatment Visit", "setting": "[4]; in vivo", "value": 0.21, "unit": "mg/dL"}, {"measurement": "subjects terminated prematurely due to adverse events", "setting": "[4]; in vivo", "value": 4, "unit": "subjects"}, {"measurement": "subjects who developed clinically meaningful hypercalcemia (at least 2 consecutive calcium values >10.5 mg/dL)", "setting": "[4]; in vivo", "value": "0/35"}, {"measurement": "adverse events considered not related to study drug administration", "setting": "[4]; once daily, 24 weeks", "value": 67, "unit": "%"}, {"measurement": "adverse events mild or moderate in severity", "setting": "[4]; once daily, 24 weeks", "value": 93, "unit": "%"}, {"measurement": "subjects with treatment-emergent adverse events", "setting": "[4]; once daily, 24 weeks", "value": 91, "unit": "%"}]}]}
